Laboratory results reported in patent US20250115598A1 (Anaxis Pharma Pty Ltd, priority 2021, published 2025).

How the values were obtained:
human MLKL (full length) = human MLKL (full length) (Homo sapiens (Human), UniProt Q8NB16); experiment: KINOMEscan binding assay, human MLKL (full length); conditions: KINOMEscan, Table 21; read-out: Human MLKL (full-length) (KD)
Outline: (§1)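 Assay principle: test compound competes with immobilized bead ligand for kinase; kinase retained, then eluted, is counted by qPCR. Conditions were 1% DMSO final with 11 compound concentrations in 3-fold steps, 30,000 nM top for most. The Hill equation with slope −1 gave Kd.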

mouse MLKL (full length) = mouse MLKL (full length) (Mus musculus (Mouse), UniProt Q9D2Y4); experiment: KINOMEscan binding assay, mouse MLKL (full length); conditions: Table 22
mouse MLKL (full length), sequence (Q9D2Y4 whole entry): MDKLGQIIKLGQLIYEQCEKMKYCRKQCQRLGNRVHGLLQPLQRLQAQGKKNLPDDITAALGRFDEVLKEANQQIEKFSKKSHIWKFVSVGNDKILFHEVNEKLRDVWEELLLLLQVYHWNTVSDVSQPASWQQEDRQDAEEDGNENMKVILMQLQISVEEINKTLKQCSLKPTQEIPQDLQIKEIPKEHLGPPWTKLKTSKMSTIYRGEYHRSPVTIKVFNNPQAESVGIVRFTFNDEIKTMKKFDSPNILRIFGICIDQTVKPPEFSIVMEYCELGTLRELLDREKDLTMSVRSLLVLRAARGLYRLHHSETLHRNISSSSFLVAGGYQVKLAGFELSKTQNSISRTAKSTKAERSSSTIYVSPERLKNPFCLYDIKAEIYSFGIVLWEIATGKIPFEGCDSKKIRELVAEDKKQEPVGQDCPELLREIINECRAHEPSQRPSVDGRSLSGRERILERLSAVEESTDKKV
Procedure: Binding affinity of the test compounds for human MLKL (full length), mouse MLKL (full length), human RIPK1 and human RIPK3 was determined using the KINOMEscan™ technology developed by DiscoverX (USA; http://www.discoverx.com). The assay was conducted according to manufacturer instructions.
Kinase assays. For most assays, kinase-tagged T7 phage strains were grown in parallel in 24-well blocks in an E. coli host derived from the BL21 strain. E. coli were grown to log-phase and infected with T7 phage from a frozen stock (multiplicity of infection=0.4) and incubated with shaking at 32° C. until lysis (90-150 minutes). The lysates were centrifuged (6,000×g) and filtered (0.2 μm) to remove cell debris. The remaining kinases were produced in HEK-293 cells and subsequently tagged with DNA for qPCR detection. […] The liganded beads were blocked with excess biotin and washed with blocking buffer (SeaBlock (Pierce), 1% BSA, 0.05% Tween 20, 1 mM DTT) to remove unbound ligand and to reduce non-specific phage binding. […] All reactions were performed in polypropylene 384-well plates in a final volume of 20 μL. […] The kinase concentration in the eluates was measured by qPCR.
An 11-point 3-fold serial dilution of each test compound was prepared in 100% DMSO at 100× final test concentration and subsequently diluted to 1× in the assay (final DMSO concentration=1%). Most Kos were determined using a compound top concentration=30,000 nM.
KD for each test compound was calculated with a standard dose-response curve using the Hill equation (equation (1)): […]
The Hill Slope was set to −1.
Curves were fitted using a non-linear least square fit with the Levenberg-Marquardt algorithm.

human RIPK1 = human RIPK1 (Homo sapiens (Human), UniProt Q13546); experiment: KINOMEscan binding assay, human RIPK1; conditions: Table 21
human RIPK1, sequence (Q13546 whole entry): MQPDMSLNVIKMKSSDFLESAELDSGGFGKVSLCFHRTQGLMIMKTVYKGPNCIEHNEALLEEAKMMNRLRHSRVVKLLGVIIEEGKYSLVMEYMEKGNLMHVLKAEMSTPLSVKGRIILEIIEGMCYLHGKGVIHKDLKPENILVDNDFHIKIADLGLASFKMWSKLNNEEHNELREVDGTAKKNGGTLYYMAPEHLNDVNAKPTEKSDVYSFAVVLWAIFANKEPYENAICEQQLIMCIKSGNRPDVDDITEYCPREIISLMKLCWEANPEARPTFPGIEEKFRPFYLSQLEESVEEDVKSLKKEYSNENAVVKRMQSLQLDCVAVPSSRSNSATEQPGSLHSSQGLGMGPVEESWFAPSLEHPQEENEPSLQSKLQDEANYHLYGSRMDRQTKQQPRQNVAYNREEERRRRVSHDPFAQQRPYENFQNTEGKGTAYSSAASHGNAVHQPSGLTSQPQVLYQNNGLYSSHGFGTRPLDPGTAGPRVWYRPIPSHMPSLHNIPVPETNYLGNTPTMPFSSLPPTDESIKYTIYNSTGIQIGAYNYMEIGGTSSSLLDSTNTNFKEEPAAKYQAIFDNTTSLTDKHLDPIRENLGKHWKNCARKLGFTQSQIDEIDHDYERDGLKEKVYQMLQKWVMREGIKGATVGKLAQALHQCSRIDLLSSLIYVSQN
Outline: as §1

human RIPK3 = human RIPK3 (Homo sapiens (Human), UniProt Q9Y572); experiment: KINOMEscan binding assay, human RIPK3; conditions: Table 21
human RIPK3, sequence (Q9Y572 whole entry): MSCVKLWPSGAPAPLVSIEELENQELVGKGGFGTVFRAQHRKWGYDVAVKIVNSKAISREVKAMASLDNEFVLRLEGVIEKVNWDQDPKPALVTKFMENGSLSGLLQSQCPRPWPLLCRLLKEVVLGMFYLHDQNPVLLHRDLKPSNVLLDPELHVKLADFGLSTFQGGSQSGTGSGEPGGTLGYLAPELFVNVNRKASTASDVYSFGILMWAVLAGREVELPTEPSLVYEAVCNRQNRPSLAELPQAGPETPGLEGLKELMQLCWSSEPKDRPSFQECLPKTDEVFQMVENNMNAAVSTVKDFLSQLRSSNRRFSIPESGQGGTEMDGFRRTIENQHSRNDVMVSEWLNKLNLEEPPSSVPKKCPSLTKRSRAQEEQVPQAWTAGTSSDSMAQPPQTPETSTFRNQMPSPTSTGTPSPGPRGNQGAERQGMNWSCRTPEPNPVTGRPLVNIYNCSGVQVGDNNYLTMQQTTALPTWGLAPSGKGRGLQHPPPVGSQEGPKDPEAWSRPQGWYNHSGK
Outline: as §1

[1] = tested on: Immortalised Mouse Dermal Fibroblasts (MDFs); experiment: Cellular assay: inhibition of TSI induced necroptosis, CellTitre-Glo viability; conditions: Mus musculus, Fibroblast; MDF, 3 hours TSI cocktail, Table 24; read-out: Inhibition of TSI-induced necroptosis (IC50 cell-based assay) in MDF
Outline: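 Immortalised mouse dermal fibroblasts (2200 cells/well) pretreated 30 min with compound, 10-point 1:3 series from 36 μM, 0.3% DMSO. Then 3 h at 37° C. with TNF (100 ng/ml), Smac mimetic (500 nM) and IDN-6556 (10 μM). CellTiter-Glo luminescence normalised to DMSO (100%) and DMSO+TSI (0%); IC50 from 4-parameter logistic fit.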

human MLKL (full length), sequence (Q8NB16 whole entry): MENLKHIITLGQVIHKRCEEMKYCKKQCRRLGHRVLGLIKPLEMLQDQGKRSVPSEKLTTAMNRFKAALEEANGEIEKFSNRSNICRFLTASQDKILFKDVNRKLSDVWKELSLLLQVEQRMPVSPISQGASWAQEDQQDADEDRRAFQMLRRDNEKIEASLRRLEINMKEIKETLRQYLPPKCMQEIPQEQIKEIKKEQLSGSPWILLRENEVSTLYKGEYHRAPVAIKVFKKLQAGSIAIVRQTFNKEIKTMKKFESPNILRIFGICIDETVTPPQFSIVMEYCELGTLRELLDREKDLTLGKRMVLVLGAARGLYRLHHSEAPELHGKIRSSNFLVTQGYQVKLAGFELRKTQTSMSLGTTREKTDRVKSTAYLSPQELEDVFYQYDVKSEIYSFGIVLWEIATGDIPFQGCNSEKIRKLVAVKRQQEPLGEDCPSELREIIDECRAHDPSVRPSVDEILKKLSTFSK

SMILES | Kd (human MLKL (full length)) | Kd (mouse MLKL (full length)) | Kd (human RIPK1) | Kd (human RIPK3) | IC50 [1]
Nc1ncc(-c2cnn(C3CCOCC3)c2)c2occ(-c3ccc(NS(=O)(=O)C(F)F)c(OCc4ccc(F)cc4)c3)c12 [Compound 5, N-(4-(4-amino-7-(1-(tetrahydro-2H-pyran-4-yl)-1H-pyrazol-4-yl)furo[3,2-c]pyridin-3-yl)-2-((4-fluorobenzyl)oxy)phenyl)-1,1-difluoro-methanesulfonamide] | < 1 nM | < 1 nM | – | – | –
C[C@H](Oc1cc(-c2coc3c(-c4cnn(C5CCOCC5)c4)cnc(N)c23)ccc1NS(=O)(=O)C(F)F)c1ccc(F)cc1 [Compound 7, (S)-N-(4-(4-amino-7-(1-(tetrahydro-2H-pyran-4-yl)-1H-pyrazol-4-yl)furo[3,2-c]pyridin-3-yl)-2-(1-(4-fluoro-phenyl)eth-oxy)phenyl)-1,1-difluoro-methanesulfonamide] | – | < 1 nM | > 10000 nM | > 10000 nM | –
C[C@H](Oc1cc(-c2coc3c(-c4cnn(C)c4)cnc(N)c23)ccc1NS(=O)(=O)C(F)F)c1ccc(F)cc1 [Compound 8, (S)-N-(4-(4-amino-7-(1-methyl-1H-pyrazol-4-yl)furo[3,2-c]pyridin-3-yl)-2-(1-(4-fluorophenyl)eth-oxy)phenyl)-1,1-difluoromethane-sulfonamide] | < 1 nM | < 1 nM | > 10000 nM | > 10000 nM | –
Cn1nc(-c2ccc(NS(=O)(=O)C(F)F)c(OCc3ccc(F)cc3)c2)c2c(N)ncc(-c3cnn(C4CCOCC4)c3)c21 [Compound 13, N-(4-(4-amino-1-methyl-7-(1-(tetrahydro-2H-pyran-4-yl)-1H-pyrazol-4-yl)-1H-pyrazolo[4,3-c]pyridin-3-yl)-2-((4-fluoro-benzyl)oxy)phenyl)-1,1-difluoromethane-sulfonamide] | < 1 nM | < 1 nM | > 10000 nM | > 10000 nM | –
C[C@H](Oc1cc(-c2nn(C)c3c(-c4cnn(CCO)c4)cnc(N)c23)ccc1NS(=O)(=O)C(F)F)c1ccc(F)cc1 [Compound 15, (S)-N-(4-(4-amino-7-(1-(2-hydroxyethyl)-1H-pyrazol-4-yl)-1-methyl-1H-pyrazolo[4,3-c]pyridin-3-yl)-2-(1-(4-fluorophenyl)ethoxy)phenyl)-1,1-difluoromethanesulfonamide] | < 1 nM | < 1 nM | > 10000 nM | > 10000 nM | –
C[C@H](Oc1cc(-c2nn(C)c3c(-c4cnn(C5CCOCC5)c4)cnc(N)c23)ccc1NS(=O)(=O)C(F)F)c1ccc(F)cc1 [Compound 19] | < 1 nM | < 1 nM | – | – | < 1000 nM
C[C@H](Oc1cc(-c2nn(C)c3c(-c4cnn(C)c4)cnc(N)c23)ccc1NS(=O)(=O)C(F)F)c1ccc(F)cc1 [Compound 20, (S)-N-(4-(4-amino-1-methyl-7-(1-methyl-1H-pyrazol-4-yl)-1H-pyrazolo[4,3-c]pyridin-3-yl)-2-(1-(4-fluorophenyl)ethoxy)phenyl)-1,1-difluoromethanesulfonamide] | < 1 nM | < 1 nM | > 10000 nM | > 10000 nM | –
C[C@H](Oc1cc(-c2nn(C)c3c(-c4cnn(CCN5CCN(C)CC5)c4)cnc(N)c23)ccc1NS(=O)(=O)C(F)F)c1ccc(F)cc1 [Compound 60, (S)-N-(4-(4-amino-1-methyl-7-(1-(2-(4-metyhlpiperazin-1-yl)ethyl)-1H-pyrazol-4-yl)-1H-pyrazolo[4,3-c]pyridin-3-yl)-2-(1-(4-fluorophenyl)ethoxy)phenyl)-1,1-difluoromethanesulfonamide] | – | < 1 nM | > 10000 nM | > 10000 nM | –
